# In patent US20230348442A1, “GALECTIN-3 INHIBITING 2-HYDROXYCYCLOALKANE-1-CARBAMOYL DERIVATIVES” (Idorsia Pharmaceuticals Ltd, priority 2020, published 2023):
# Molecular target: human Gal-3 (hGal-3) (Homo sapiens (Human), UniProt P17931)
# Assay: competitive binding assay: binding of biotinylated hGal-3 to microplate-adsorbed asialofetuin (ASF), spectrophotometric
# Conditions: Activity on hGal-3; mean values of several measurements
# Method: Evaluation of Compound Inhibitory Activity (IC50)
# The inhibitory activity of compounds is determined in competitive binding assays. This spectrophotometric assay measures the binding of biotinylated human Gal-3 (hGal-3) or human Gal-1 (hGal-1), respectively, to a microplate-adsorbed glycoprotein, asialofetuin (ASF) (Proc Natl Acad Sci USA. 2013 Mar. 26; 110(13):5052-7.). Alternatively, and preferably, a human Gal-1 version in which all six cysteines are substituted by serines may be used.
# Briefly, compounds are serially diluted in DMSO (working dilutions). ASF-coated 384 well plates are supplemented with 22.8 μL/well of biotinylated hGal-3 or hGal-1 in assay buffer (i.e. 300-1000 ng/mL biotinylated hGal-3 or hGal-1) to which 1.2 μL of compound working dilutions are added and mixed.
# Plates are incubated for 3 hours at 4° C., then washed with cold assay buffer (3×50 uL), incubated for 1 hour with 25 μL/well of a streptavidin-peroxidase solution (diluted in assay buffer to 80 ng/mL) at 4° C., followed by further washing steps with assay buffer (3×50 uL). Finally, 25 μL/well of ABTS substrate is added.
# The calculated IC50 values may fluctuate depending on the daily assay performance. Fluctuations of this kind are known to those skilled in the art. IC50 values from several measurements are given as mean values.
# human Gal-3 (hGal-3), sequence (P17931 whole entry): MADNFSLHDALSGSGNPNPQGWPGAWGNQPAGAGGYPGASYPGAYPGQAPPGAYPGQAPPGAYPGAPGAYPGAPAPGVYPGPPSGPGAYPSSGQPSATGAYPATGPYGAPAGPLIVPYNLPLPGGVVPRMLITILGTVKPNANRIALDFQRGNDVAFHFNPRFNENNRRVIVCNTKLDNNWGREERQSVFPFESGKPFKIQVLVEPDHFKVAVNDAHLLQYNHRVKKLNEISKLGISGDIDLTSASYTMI
row,Structure (SMILES),IC50 [nM]
1,"CO[C@@H]1[C@@H](n2cc(-c3cc(F)c(Br)c(F)c3)nn2)[C@@H](O)[C@@H](CO)O[C@H]1C(=O)N(c1cc(F)cc(C#N)c1)[C@@H]1CC[C@H]1O [Example 2.6.7R, (2R,3R,4S,5R,6R)-4-(4-(4-bromo-3,5-difluorophenyl)-1H-1,2,3-triazol-1-yl)-N-(3-cyano-5-fluorophenyl)-5-hydroxy-N-((1R,2R)-2-hydroxycyclobutyl)-6-(hydroxymethyl)-3-methoxytetrahydro-2H-pyran-2-carboxamide]",359
2,"CO[C@@H]1[C@@H](n2cc(-c3cc(F)c(F)c(F)c3)nn2)[C@@H](O)[C@@H](CO)O[C@H]1C(=O)N(c1cc(C)cc(Br)c1)[C@@H]1CC[C@H]1O [Example 2.1.12R, (2R,3R,4S,5R,6R)-N-(3-bromo-5-methylphenyl)-5-hydroxy-N-((1R,2R)-2-hydroxycyclobutyl)-6-(hydroxymethyl)-3-methoxy-4-(4-(3,4,5-trifluorophenyl)-1H-1,2,3-triazol-1-yl)tetrahydro-2H-pyran-2-carboxamide]",220
3,"CO[C@@H]1[C@@H](n2cc(-c3ccc(C)c(F)c3)nn2)[C@@H](O)[C@@H](CO)O[C@H]1C(=O)N(c1cc(Br)cc(C#N)c1)[C@@H]1CCC[C@H]1O [Example 1.13.5R, (2R,3R,4S,5R,6R)-N-(3-bromo-5-cyanophenyl)-4-(4-(3-fluoro-4-methylphenyl)-1H-1,2,3-triazol-1-yl)-5-hydroxy-N-((1R,2R)-2-hydroxycyclopentyl)-6-(hydroxymethyl)-3-methoxytetrahydro-2H-pyran-2-carboxamide]",167
4,"CO[C@@H]1[C@@H](n2cc(-c3cc(F)c(Cl)c(F)c3)nn2)[C@@H](O)[C@@H](CO)O[C@H]1C(=O)N(c1cc(Cl)cc(C#N)c1)[C@@H]1CCC[C@H]1O [Example 1.5.4R, (2R,3R,4S,5R,6R)-4-(4-(4-chloro-3,5-difluorophenyl)-1H-1,2,3-triazol-1-yl)-N-(3-chloro-5-cyanophenyl)-5-hydroxy-N-((1R,2R)-2-hydroxycyclopentyl)-6-(hydroxymethyl)-3-methoxytetrahydro-2H-pyran-2-carboxamide]",153
5,"CO[C@@H]1[C@@H](n2cc(-c3cc(F)c(F)c(F)c3)nn2)[C@@H](O)[C@@H](CO)O[C@H]1C(=O)N(c1cc(Br)cc(Br)c1)[C@H]1CC[C@@H]1O [Example 2.1.11, (2R,3R,4S,5R,6R)-N-(3,5-dibromophenyl)-5-hydroxy-N-((1S,2S)-2-hydroxycyclobutyl)-6-(hydroxymethyl)-3-methoxy-4-(4-(3,4,5-trifluorophenyl)-1H-1,2,3-triazol-1-yl)tetrahydro-2H-pyran-2-carboxamide]",72.5
6,"CO[C@@H]1[C@@H](n2cc(-c3cc(F)c(F)c(F)c3)nn2)[C@@H](O)[C@@H](CO)O[C@H]1C(=O)N(c1cccc(Cl)c1)[C@H]1CC[C@@H]1O [Example 2.1.1, (2R,3R,4S,5R,6R)-N-(3-chlorophenyl)-5-hydroxy-N-((1S,2S)-2-hydroxycyclobutyl)-6-(hydroxymethyl)-3-methoxy-4-(4-(3,4,5-trifluorophenyl)-1H-1,2,3-triazol-1-yl)tetrahydro-2H-pyran-2-carboxamide]",109
7,"CO[C@@H]1[C@@H](n2cc(-c3cc(F)c(Cl)c(Cl)c3)nn2)[C@@H](O)[C@@H](CO)O[C@H]1C(=O)N(c1cc(Cl)cc(C#N)c1)[C@@H]1CC[C@H]1O [Example 2.17.4R, (2R,3R,4S,5R,6R)-N-(3-chloro-5-cyanophenyl)-4-(4-(3,4-dichloro-5-fluorophenyl)-1H-1,2,3-triazol-1-yl)-5-hydroxy-N-((1R,2R)-2-hydroxycyclobutyl)-6-(hydroxymethyl)-3-methoxytetrahydro-2H-pyran-2-carboxamide]",224
8,"CC(=O)O[C@@H]1[C@@H](n2cc(-c3cc(F)c(F)c(F)c3)nn2)[C@@H](O)[C@@H](CO)O[C@H]1C(=O)N(c1cc(Cl)cc(C#N)c1)[C@@H]1CC[C@H]1O [Example 2A.1.4R, (2R,3R,4S,5R,6R)-2-((3-chloro-5-cyanophenyl)((1R,2R)-2-hydroxycyclobutyl)carbamoyl)-5-hydroxy-6-(hydroxymethyl)-4-(4-(3,4,5-trifluorophenyl)-1H-1,2,3-triazol-1-yl)tetrahydro-2H-pyran-3-yl acetate]",80.6
9,"CO[C@@H]1[C@@H](n2cc(-c3ccc(Cl)cc3)nn2)[C@@H](O)[C@@H](CO)O[C@H]1C(=O)N(c1cc(Cl)cc(C#N)c1)[C@@H]1CCC[C@H]1O [Example 1.18.4R, (2R,3R,4S,5R,6R)-N-(3-chloro-5-cyanophenyl)-4-(4-(4-chlorophenyl)-1H-1,2,3-triazol-1-yl)-5-hydroxy-N-((1R,2R)-2-hydroxycyclopentyl)-6-(hydroxymethyl)-3-methoxytetrahydro-2H-pyran-2-carboxamide]",536
10,"CO[C@@H]1[C@@H](n2cc(-c3ccc(C#N)c(F)c3)nn2)[C@@H](O)[C@@H](CO)O[C@H]1C(=O)N(c1cc(Cl)cc(C#N)c1)[C@H]1CCC[C@@H]1O [Example 1.16.4, (2R,3R,4S,5R,6R)-N-(3-chloro-5-cyanophenyl)-4-(4-(4-cyano-3-fluorophenyl)-1H-1,2,3-triazol-1-yl)-5-hydroxy-N-((1S,2S)-2-hydroxycyclopentyl)-6-(hydroxymethyl)-3-methoxytetrahydro-2H-pyran-2-carboxamide]",102
11,"COc1cc(C#N)cc(N(C(=O)[C@@H]2O[C@H](CO)[C@H](O)[C@H](n3cc(-c4ccc(C#N)c(F)c4)nn3)[C@H]2OC)[C@H]2CCC[C@@H]2O)c1 [Example 1.16.9, (2R,3R,4S,5R,6R)-4-(4-(4-cyano-3-fluorophenyl)-1H-1,2,3-triazol-1-yl)-N-(3-cyano-5-methoxyphenyl)-5-hydroxy-N-((1S,2S)-2-hydroxycyclopentyl)-6-(hydroxymethyl)-3-methoxytetrahydro-2H-pyran-2-carboxamide]",256
12,"CO[C@@H]1[C@@H](n2cc(-c3cccc(F)c3)nn2)[C@@H](O)[C@@H](CO)O[C@H]1C(=O)N(c1cc(Br)cc(C#N)c1)[C@H]1CCC[C@@H]1O [Example 1.15.5, (2R,3R,4S,5R,6R)-N-(3-bromo-5-cyanophenyl)-4-(4-(3-fluorophenyl)-1H-1,2,3-triazol-1-yl)-5-hydroxy-N-((1S,2S)-2-hydroxycyclopentyl)-6-(hydroxymethyl)-3-methoxytetrahydro-2H-pyran-2-carboxamide]",66
13,"CO[C@@H]1[C@@H](n2cc(-c3cccc(F)c3)nn2)[C@@H](O)[C@@H](CO)O[C@H]1C(=O)N(c1cc(Cl)cc(C#N)c1)[C@@H]1CCC[C@H]1O [Example 1.15.4R, (2R,3R,4S,5R,6R)-N-(3-chloro-5-cyanophenyl)-4-(4-(3-fluorophenyl)-1H-1,2,3-triazol-1-yl)-5-hydroxy-N-((1R,2R)-2-hydroxycyclopentyl)-6-(hydroxymethyl)-3-methoxytetrahydro-2H-pyran-2-carboxamide]",838
14,"CO[C@@H]1[C@@H](n2cc(-c3cc(F)cc(Br)c3)nn2)[C@@H](O)[C@@H](CO)O[C@H]1C(=O)N(c1cc(C)cc(C#N)c1)[C@@H]1CCC[C@H]1O [Example 1.10.8R, (2R,3R,4S,5R,6R)-4-(4-(3-bromo-5-fluorophenyl)-1H-1,2,3-triazol-1-yl)-N-(3-cyano-5-methylphenyl)-5-hydroxy-N-((1R,2R)-2-hydroxycyclopentyl)-6-(hydroxymethyl)-3-methoxytetrahydro-2H-pyran-2-carboxamide]",1120
15,"CO[C@@H]1[C@@H](n2cc(-c3ccc(C#N)c(F)c3)nn2)[C@@H](O)[C@@H](CO)O[C@H]1C(=O)N(c1cc(Br)cc(C#N)c1)[C@@H]1CCC[C@H]1O [Example 1.16.5R, (2R,3R,4S,5R,6R)-N-(3-bromo-5-cyanophenyl)-4-(4-(4-cyano-3-fluorophenyl)-1H-1,2,3-triazol-1-yl)-5-hydroxy-N-((1R,2R)-2-hydroxycyclopentyl)-6-(hydroxymethyl)-3-methoxytetrahydro-2H-pyran-2-carboxamide]",729
16,"CO[C@@H]1[C@@H](n2cc(-c3ccc(Cl)c(F)c3F)nn2)[C@@H](O)[C@@H](CO)O[C@H]1C(=O)N(c1cc(Cl)cc(C#N)c1)[C@H]1CCC[C@@H]1O [Example 1.14.4, (2R,3R,4S,5R,6R)-4-(4-(4-chloro-2,3-difluorophenyl)-1H-1,2,3-triazol-1-yl)-N-(3-chloro-5-cyanophenyl)-5-hydroxy-N-((1S,2S)-2-hydroxycyclopentyl)-6-(hydroxymethyl)-3-methoxytetrahydro-2H-pyran-2-carboxamide]",12.5
17,"CO[C@@H]1[C@@H](n2cc(-c3cc(F)c(F)c(F)c3)nn2)[C@@H](O)[C@@H](CO)O[C@H]1C(=O)N(c1cc(C)cc(Br)c1)[C@@H]1CCC[C@H]1O [Example 1.1.12R, (2R,3R,4S,5R,6R)-N-(3-bromo-5-methylphenyl)-5-hydroxy-N-((1R,2R)-2-hydroxycyclopentyl)-6-(hydroxymethyl)-3-methoxy-4-(4-(3,4,5-trifluorophenyl)-1H-1,2,3-triazol-1-yl)tetrahydro-2H-pyran-2-carboxamide]",348
18,"O=C([C@@H]1O[C@H](CO)[C@H](O)[C@H](n2cc(-c3cc(F)c(F)c(F)c3)nn2)[C@H]1O)N(c1cc(Cl)cc(Cl)c1)[C@H]1CC[C@@H]1O [Example 2H.1.2, (2R,3R,4S,5R,6R)-N-(3,5-dichlorophenyl)-3,5-dihydroxy-N-((1S,2S)-2-hydroxycyclobutyl)-6-(hydroxymethyl)-4-(4-(3,4,5-trifluorophenyl)-1H-1,2,3-triazol-1-yl)tetrahydro-2H-pyran-2-carboxamide]",67.5
